Assay results: PubChem BioAssay AID2060906 (Molecular Pharmacology Branch, DTP, NCI, 2025)
pIC50: −log10 of the molar value.

System: 485176-168-R4-J1-PDC complex spheroid growth
Test: Anticancer human tumor 485176-168-R4-J1-PDC patient-derived pancreatic adenocarcinoma cell line growth inhibition [RAS]
Settings: for pIC50: curve of first compound; for viability, T/C: stronger effect = lower value
Outline: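 Multi-cell-type spheroids: tumor cells plus HUVEC endothelial cells and mesenchymal stem cells. RAS-pathway inhibitors were combined with targeted agents, each dosed in half-log steps down from clinical Cmax, or from 10 microM when Cmax was unknown.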
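Note: spheroids exposed to compounds for seven days before readout.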
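Throughout, for viability, T/C: luminescence viability expressed relative to DMSO vehicle wells set as 100%.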

Structure (SMILES): CC(=O)OC12COC1CC(O)C1(C)C(=O)C(O)C3=C(C)C(OC(=O)C(O)C(NC(=O)OC(C)(C)C)c4ccccc4)CC(O)(C(OC(=O)c4ccccc4)C21)C3(C)C (centres undefined) + CCn1c(-c2cc(N3CCN(C)CC3)cnc2C(C)OC)c2c3cc(ccc31)-c1csc(n1)CC(NC(=O)C1CC1C)C(=O)N1CCCC(N1)C(=O)OCC(C)(C)C2
- pIC50 (second compound 0.000949 µM): > 7.50
- pIC50 (second compound 0.003 µM): > 7.50
- pIC50 (second compound 0.00949 µM): > 7.50
- pIC50 (second compound 0.03 µM): > 7.50
- pIC50 (second compound 0.0949 µM): > 7.50
- pIC50 (second compound 0.3 µM): > 7.50
- viability, T/C (second compound 0.000949 µM, first compound 0.0316 µM): 16.7%
- viability, T/C (second compound 0.000949 µM, first compound 0.1 µM): 15.2%
- viability, T/C (second compound 0.000949 µM, first compound 0.316 µM): 13.1%
- viability, T/C (second compound 0.000949 µM, first compound 1 µM): 13.9%
- viability, T/C (second compound 0.000949 µM, first compound 3.16 µM): 15.6%
- viability, T/C (second compound 0.000949 µM, first compound 10 µM): 19.6%
- viability, T/C (second compound 0.003 µM, first compound 0.0316 µM): 14.1%
- viability, T/C (second compound 0.003 µM, first compound 0.1 µM): 13.2%
- viability, T/C (second compound 0.003 µM, first compound 0.316 µM): 10.9%
- viability, T/C (second compound 0.003 µM, first compound 1 µM): 15.5%
- viability, T/C (second compound 0.003 µM, first compound 3.16 µM): 13.1%
- viability, T/C (second compound 0.003 µM, first compound 10 µM): 17.9%
- viability, T/C (second compound 0.00949 µM, first compound 0.0316 µM): 17.2%
- viability, T/C (second compound 0.00949 µM, first compound 0.1 µM): 12.8%
- viability, T/C (second compound 0.00949 µM, first compound 0.316 µM): 12.7%
- viability, T/C (second compound 0.00949 µM, first compound 1 µM): 12.8%
- viability, T/C (second compound 0.00949 µM, first compound 3.16 µM): 13.2%
- viability, T/C (second compound 0.00949 µM, first compound 10 µM): 20.1%
- viability, T/C (second compound 0.03 µM, first compound 0.0316 µM): 12.3%
- viability, T/C (second compound 0.03 µM, first compound 0.1 µM): 13.4%
- viability, T/C (second compound 0.03 µM, first compound 0.316 µM): 13.8%
- viability, T/C (second compound 0.03 µM, first compound 1 µM): 10.8%
- viability, T/C (second compound 0.03 µM, first compound 3.16 µM): 16.5%
- viability, T/C (second compound 0.03 µM, first compound 10 µM): 21%
- viability, T/C (second compound 0.0949 µM, first compound 0.0316 µM): 14.2%
- viability, T/C (second compound 0.0949 µM, first compound 0.1 µM): 11.9%
- viability, T/C (second compound 0.0949 µM, first compound 0.316 µM): 11.8%
- viability, T/C (second compound 0.0949 µM, first compound 1 µM): 9.97%
- viability, T/C (second compound 0.0949 µM, first compound 3.16 µM): 14.9%
- viability, T/C (second compound 0.0949 µM, first compound 10 µM): 15.9%
- viability, T/C (second compound 0.3 µM, first compound 0.0316 µM): 15.5%
- viability, T/C (second compound 0.3 µM, first compound 0.1 µM): 13.1%
- viability, T/C (second compound 0.3 µM, first compound 0.316 µM): 9.69%
- viability, T/C (second compound 0.3 µM, first compound 1 µM): 12.8%
- viability, T/C (second compound 0.3 µM, first compound 3.16 µM): 15.8%
- viability, T/C (second compound 0.3 µM, first compound 10 µM): 14.7%

Structure (SMILES): CCc1c2c(nc3ccc(O)cc13)-c1cc3c(c(=O)n1C2)COC(=O)[C@]3(O)CC + CCn1c(-c2cc(N3CCN(C)CC3)cnc2C(C)OC)c2c3cc(ccc31)-c1csc(n1)CC(NC(=O)C1CC1C)C(=O)N1CCCC(N1)C(=O)OCC(C)(C)C2
- pIC50 (second compound 0.000949 µM): 7.86
- pIC50 (second compound 0.003 µM): 7.91
- pIC50 (second compound 0.00949 µM): 7.94
- pIC50 (second compound 0.03 µM): 7.95
- pIC50 (second compound 0.0949 µM): 7.99
- pIC50 (second compound 0.3 µM): 8.15
- viability, T/C (second compound 0.000949 µM, first compound 0.000949 µM): 104%
- viability, T/C (second compound 0.000949 µM, first compound 0.003 µM): 77.5%
- viability, T/C (second compound 0.000949 µM, first compound 0.00949 µM): 64.3%
- viability, T/C (second compound 0.000949 µM, first compound 0.03 µM): 30.8%
- viability, T/C (second compound 0.000949 µM, first compound 0.0949 µM): 16.6%
- viability, T/C (second compound 0.000949 µM, first compound 0.3 µM): 9.25%
- viability, T/C (second compound 0.003 µM, first compound 0.000949 µM): 95%
- viability, T/C (second compound 0.003 µM, first compound 0.003 µM): 86%
- viability, T/C (second compound 0.003 µM, first compound 0.00949 µM): 55.6%
- viability, T/C (second compound 0.003 µM, first compound 0.03 µM): 27.8%
- viability, T/C (second compound 0.003 µM, first compound 0.0949 µM): 16.1%
- viability, T/C (second compound 0.003 µM, first compound 0.3 µM): 9.83%
- viability, T/C (second compound 0.00949 µM, first compound 0.000949 µM): 81.2%
- viability, T/C (second compound 0.00949 µM, first compound 0.003 µM): 77.8%
- viability, T/C (second compound 0.00949 µM, first compound 0.00949 µM): 50.3%
- viability, T/C (second compound 0.00949 µM, first compound 0.03 µM): 32.4%
- viability, T/C (second compound 0.00949 µM, first compound 0.0949 µM): 16.2%
- viability, T/C (second compound 0.00949 µM, first compound 0.3 µM): 7.59%
- viability, T/C (second compound 0.03 µM, first compound 0.000949 µM): 70.7%
- viability, T/C (second compound 0.03 µM, first compound 0.003 µM): 72.3%
- viability, T/C (second compound 0.03 µM, first compound 0.00949 µM): 52.3%
- viability, T/C (second compound 0.03 µM, first compound 0.03 µM): 28.3%
- viability, T/C (second compound 0.03 µM, first compound 0.0949 µM): 15.9%
- viability, T/C (second compound 0.03 µM, first compound 0.3 µM): 12%
- viability, T/C (second compound 0.0949 µM, first compound 0.000949 µM): 70.1%
- viability, T/C (second compound 0.0949 µM, first compound 0.003 µM): 76.8%
- viability, T/C (second compound 0.0949 µM, first compound 0.00949 µM): 45.2%
- viability, T/C (second compound 0.0949 µM, first compound 0.03 µM): 32.5%
- viability, T/C (second compound 0.0949 µM, first compound 0.0949 µM): 17%
- viability, T/C (second compound 0.0949 µM, first compound 0.3 µM): 9.84%
- viability, T/C (second compound 0.3 µM, first compound 0.000949 µM): 78.3%
- viability, T/C (second compound 0.3 µM, first compound 0.003 µM): 62.1%
- viability, T/C (second compound 0.3 µM, first compound 0.00949 µM): 47.3%
- viability, T/C (second compound 0.3 µM, first compound 0.03 µM): 27.6%
- viability, T/C (second compound 0.3 µM, first compound 0.0949 µM): 15.2%
- viability, T/C (second compound 0.3 µM, first compound 0.3 µM): 6.04%
